The text below walks through data of PubChem BioAssay (NCI).

Among the test systems are IGROV1 ovarian; SNB-75 CNS; HCT-15 colon; RXF 393 renal; SW-620 colon; M14 melanoma.
Holding throughout (test): NCI-60 cell line screen, 48 h

“And” between values parts separate entries of the source, which are not always exact repeats. Equal values may be shown once.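 Compound exposure: 48 hours, 5 concentrations, 96-well plates. GI50 = concentration required for 50% inhibition of growth. The concentration for full growth arrest is given as TGI.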

For `CCc1oc2ccc(OC)c3c2c1C=CC=C3`, the TGI in the assay on IGROV1 ovarian, in the assay on SNB-75 CNS, in the assay with HCT-15 colon, in the assay with RXF 393 renal, in the assay on SW-620 colon and in the assay on M14 melanoma was above 100 µM throughout.
For the molecule `COC(=O)C(=O)C1CCCCC(C2=NC3NN=C(N)N3C2=O)C1=O` (stereo unspecified), the TGI in the assay on IGROV1 ovarian, in the assay with SNB-75 CNS, in the assay on HCT-15 colon, in the assay on RXF 393 renal, in the assay with SW-620 colon and in the assay with M14 melanoma was above 100 µM throughout.
With `O=C1CCC(=O)C(C(=O)CCC(=O)Nc2cccc(Cl)c2)C1` (stereo unspecified), the TGI in the assay on IGROV1 ovarian, in the assay on SNB-75 CNS, in the assay with HCT-15 colon, in the assay with RXF 393 renal, in the assay with SW-620 colon and in the assay on M14 melanoma was above 100 µM each time.
Regarding `CC12C(=O)N(CCN)C(=O)C1C1c3ccccc3C2c2ccccc21` (stereo unspecified), the TGI in the assay with IGROV1 ovarian, in the assay with SNB-75 CNS, in the assay on HCT-15 colon, with SW-620 colon and with M14 melanoma was above 100 µM each time.
As for `N#CC12Cc3ccc4c(c3-c3cccc(c31)CCN2C(=O)c1ccccc1)OCO4` (stereo unspecified), the TGI with IGROV1 ovarian, in the assay with SNB-75 CNS, with HCT-15 colon, in the assay on RXF 393 renal, in the assay on SW-620 colon and in the assay with M14 melanoma was above 100 µM each time.
For `CCOc1ccc(NC(=O)CCC(=O)NN)cc1`, the TGI with SNB-75 CNS, in the assay on HCT-15 colon, with RXF 393 renal, with SW-620 colon and in the assay on M14 melanoma was above 100 µM each time.
For the molecule `CO[C@@]12CC(=O)/C(=C(O)\C=C\c3ccccc3)C(=O)[C@]1(OC)Cc1ccccc1O2`, the TGI in the assay with IGROV1 ovarian was above 100 µM; in the assay with SNB-75 CNS it was above 100 µM; with HCT-15 colon it was 51.7 µM; with RXF 393 renal, 36.5 µM; with SW-620 colon it was above 100 µM; in the assay on M14 melanoma, above 100 µM.
As for `Cc1cccc(N=C2NC(=O)C(CC(=O)Nc3ccc(Cl)cc3C)S2)c1` (stereo unspecified), the TGI in the assay with IGROV1 ovarian, in the assay on SNB-75 CNS, with HCT-15 colon, in the assay on RXF 393 renal, in the assay with SW-620 colon and in the assay with M14 melanoma was above 100 µM throughout.
Regarding `CC12OC3CC(O1)C1(C=O)C4CCC5(C)C(c6ccc(=O)oc6)CCC5(O)C4CCC1(C3)O2` (stereo unspecified), the TGI with IGROV1 ovarian was determined as 2.44 µM; in the assay with SNB-75 CNS, 1.03 µM; with HCT-15 colon, 0.648 µM; in the assay with RXF 393 renal it was 0.256 µM; in the assay with SW-620 colon it was 1.27 µM; in the assay on M14 melanoma, 0.596 µM.
Regarding `CC(C)[O-].CC(C)[O-].[O-]c1cccc2cccnc12.[O-]c1cccc2cccnc12.[Ti+4]`, the TGI was above 100 µM in the assay on IGROV1 ovarian; above 100 µM in the assay with SNB-75 CNS; above 100 µM in the assay on HCT-15 colon; 6.04 µM in the assay with RXF 393 renal; above 100 µM with SW-620 colon; above 100 µM in the assay on M14 melanoma. Further, the GI50 was above 100000 nM in the assay on SNB-75 CNS; 4.79 µM and 8.05 µM with HCT-15 colon; 2420 nM in the assay with RXF 393 renal; 6.47 µM and 5.89 µM with SW-620 colon; 9.68 µM and 10.8 µM with M14 melanoma.
As to `O=C1C2Nc3ccccc3SC2C(=O)N1c1cccc([N+](=O)[O-])c1` (stereo unspecified), the TGI in the assay on IGROV1 ovarian, in the assay with SNB-75 CNS, in the assay with HCT-15 colon, in the assay on RXF 393 renal, in the assay on SW-620 colon and with M14 melanoma was above 100 µM throughout.
Consider `COC(=O)C1=Cc2c(OC)cc(OC)c(OC)c2[C@H](c2cc(OC)c(OC)cc2OC)C1C(=O)OC` (stereo partly specified), for which the TGI in the assay with IGROV1 ovarian, in the assay on SNB-75 CNS, in the assay on HCT-15 colon, in the assay with RXF 393 renal, in the assay on SW-620 colon and in the assay with M14 melanoma was above 100 µM each time.
For the molecule `OC1C2C=CCC1CCC2` (stereo unspecified), the TGI in the assay with IGROV1 ovarian, with SNB-75 CNS, in the assay on RXF 393 renal, with SW-620 colon and with M14 melanoma was above 100 µM each time.
Turning to `CC1=NN(c2ccccc2)C(=O)C1N=Nc1ccc(Br)c(C)c1` (stereo unspecified), the TGI with IGROV1 ovarian, in the assay with SNB-75 CNS, with HCT-15 colon, in the assay on RXF 393 renal, with SW-620 colon and in the assay on M14 melanoma was above 100 µM in each case.
In the case of `O=c1[nH]c2c(O)cccc2c2cc3c(c(O)c12)OCO3`, the TGI is above 100 µM with IGROV1 ovarian; above 100 µM in the assay with SNB-75 CNS; above 100 µM in the assay with HCT-15 colon; above 100 µM in the assay on SW-620 colon; 52.4 µM with M14 melanoma.
With `CC(C)c1cccc(C(C)C)c1NC1=CC(=O)C(=O)c2ccccc21`, the TGI in the assay on IGROV1 ovarian, with HCT-15 colon, with RXF 393 renal, in the assay with SW-620 colon and with M14 melanoma was above 100 µM in each case.
With `O=[N+]([O-])c1cc(/C=N/NS(=O)(=O)c2ccc(F)cc2)c(O)c([N+](=O)[O-])c1`, the TGI with IGROV1 ovarian was above 100 µM; in the assay on SNB-75 CNS it was 76.9 µM; in the assay with HCT-15 colon it was 67.4 µM; with RXF 393 renal it was 84.9 µM; in the assay on SW-620 colon it was above 100 µM; with M14 melanoma it was 52.2 µM.
Turning to `Cc1cc(=O)[nH]c(CNC(=O)Cc2ccccc2)n1`, the TGI with IGROV1 ovarian, with SNB-75 CNS, in the assay on HCT-15 colon, in the assay on RXF 393 renal, in the assay with SW-620 colon and in the assay on M14 melanoma was above 100 µM each time.
As for `CC(C)NC(=O)O/N=C1\CCC2[C@@H]3CC=C4C[C@@H](OC(=O)NC(C)C)CC[C@]4(C)C3CC[C@]12C` (stereo partly specified), the TGI with SNB-75 CNS was 3.74 µM; with HCT-15 colon, 3.08 µM; in the assay on RXF 393 renal, 3.54 µM; with SW-620 colon it was 3.72 µM; in the assay with M14 melanoma, 1.95 µM.
Turning to `CCOC(=O)c1c(C(F)(F)F)oc2c1ccc1nc3nonc3nc12`, the TGI in the assay with IGROV1 ovarian stood at 55.7 µM; in the assay with SNB-75 CNS it was 30 µM; in the assay on HCT-15 colon, 32.6 µM; in the assay on RXF 393 renal it was 16.4 µM; in the assay with SW-620 colon it was 35.3 µM; in the assay on M14 melanoma, 21 µM.
Consider `Cc1cc2c(cc1C)[n+]([O-])c(-c1c(Cl)cccc1Cl)c(N)[n+]2[O-]`, for which the TGI with IGROV1 ovarian, in the assay with SNB-75 CNS, in the assay with HCT-15 colon, with SW-620 colon and in the assay with M14 melanoma was above 100 µM in each case.
For `NNC(=S)N/N=C/C(Cl)=C(\Cl)C(=O)O`, the TGI with IGROV1 ovarian, in the assay with SNB-75 CNS, in the assay with HCT-15 colon, in the assay on RXF 393 renal, in the assay with SW-620 colon and in the assay on M14 melanoma was above 100 µM throughout.
On to `Nn1c(N=Nc2c(O)[nH]c3ccccc23)n[nH]c1=S`, for which the TGI in the assay on IGROV1 ovarian was above 100 µM; with HCT-15 colon, above 100 µM; in the assay with RXF 393 renal, 95.1 µM; in the assay on SW-620 colon, above 100 µM; in the assay on M14 melanoma, above 100 µM.
On to `Cc1cc(C)c2[s+]snc2c1`, for which the TGI with IGROV1 ovarian was above 100 µM; in the assay on SNB-75 CNS, above 100 µM; in the assay with RXF 393 renal, 91.6 µM; with SW-620 colon, above 100 µM; in the assay with M14 melanoma, above 100 µM.
As for `CP(C)C.[Ag][I]`, the TGI was above 100 µM in the assay with IGROV1 ovarian; 46.5 µM with SNB-75 CNS; above 100 µM with HCT-15 colon; above 100 µM in the assay with RXF 393 renal; above 100 µM with SW-620 colon; above 100 µM in the assay on M14 melanoma.
As to `C[N+]1=c2c3cccc4cccc(c(=O)n2CCC1)c43`, the TGI was above 100 µM with IGROV1 ovarian; 78.7 µM with SNB-75 CNS; above 100 µM in the assay on HCT-15 colon; 60.8 µM in the assay with RXF 393 renal; above 100 µM with SW-620 colon; 33.2 µM in the assay with M14 melanoma.
For `C=C1CC(C/C=C(\C)CC2CC(=C)C(=O)O2)OC1=O` (stereo unspecified), the TGI with IGROV1 ovarian, with SNB-75 CNS, in the assay with HCT-15 colon, in the assay on RXF 393 renal, in the assay on SW-620 colon and with M14 melanoma was above 100 µM throughout.
`N#C/C(=C\c1ccc(O)cc1O)C(N)=O`: the TGI in the assay with IGROV1 ovarian was above 100 µM; with SNB-75 CNS, 67.4 µM; with HCT-15 colon, above 100 µM; in the assay with RXF 393 renal it was 83.5 µM; with SW-620 colon, above 100 µM; in the assay on M14 melanoma it was above 100 µM.
For the molecule `CCC[CH2][Sn]1([CH2]CCC)[O]C(=O)c2cc(C)ccc2[O]1`, the GI50 with IGROV1 ovarian is 924 nM; in the assay with SNB-75 CNS, 291 nM; in the assay on HCT-15 colon, 0.446 µM; in the assay with RXF 393 renal it was 283 nM; with SW-620 colon, 0.211 µM; in the assay with M14 melanoma, 0.342 µM. Moreover, the TGI was found to be 2.21 µM with IGROV1 ovarian; 1.2 µM in the assay with SNB-75 CNS; 1.45 µM with HCT-15 colon; 0.555 µM in the assay with RXF 393 renal; 0.574 µM in the assay with SW-620 colon; 1.5 µM in the assay on M14 melanoma.
As for `CCOC(=O)N1CCC(=O)C[C@@H]1C/C=C/P1(=O)O[C@H](c2ccccc2)C(C)N1C(C)C` (stereo partly specified), the TGI with IGROV1 ovarian, with SNB-75 CNS, in the assay on HCT-15 colon, in the assay on RXF 393 renal and with SW-620 colon was above 100 µM each time.
